Key:
Assay type in all cases: in vivo
[1] = test system: diamondback moth (Plutella xylostella); test: Insecticidal effect on diamondback moth (Test Example 1); settings: diamondback moth; mortality judged by criterion of Test Example 1
Method in brief: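 Triplicate groups of 10 insects: eggs laid on Chinese cabbage seedling by adults, seedling immersed then air-dried, kept at 25° C. Day-6 hatch counts gave mortality, rated by criterion.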

[2] = test system: rice leafroller (Cnaphalocrocis medinalis); test: Insecticidal effect on rice leafroller (Test Example 3); settings: rice leafroller third-instar larvae; rice lamina immersed, 500 ppm; four days after inoculation; 25° C., humidity 70%
Method in brief: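 Insecticidal effect is judged by a predefined criterion from dead/alive counts four days after infesting air-dried lamina with third-instar larvae, kept on moistened filter paper at 25° C, 70% humidity.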

[3] = test system: common cutworm (Spodoptera Litura); test: Insecticidal effect on common cutworm (Test Example 2); settings: common cutworm second-instar larvae; cabbage leaf immersed, 500 ppm; eight days after inoculation; 25° C.
Method in brief: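 Mortality was scored 8 days post-inoculation, using three groups of 10 second-instar larvae kept at 25 °C in closed 9 cm dishes on air-dried treated material. The insecticidal effect was graded from calculated mortality by a set criterion.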

Row | SMILES | Insecticidal effect, Test Example 1 [1] | Insecticidal effect, Test Example 3 [2] | Insecticidal effect, Test Example 2 [3]
1 | CC(C)NC(=O)c1ccccc1C(=O)Nc1ccc(C(O)(C(F)(F)F)C(F)(F)F)cc1 [compound 978] | A (100) | A (100) | C (89-80)
2 | CC(C)NC(=O)c1c(C(=O)Nc2ccc(C(O)(C(F)(F)F)C(F)(F)F)cc2)cccc1[N+](=O)[O-] [compound 979] | A (100) | A (100) | A (100)
3 | CC(C)NC(=O)c1c(Cl)cccc1C(=O)Nc1ccc(C(O)(C(F)(F)F)C(F)(F)F)cc1 [compound 980] | A (100) | A (100) | A (100)
4 | COCCNC(=O)c1c(I)cccc1C(=O)Nc1ccc(C(F)(F)C(F)(F)F)cc1C [compound 981] | A (100) | A (100) | A (100)
5 | CCOCCNC(=O)c1c(I)cccc1C(=O)Nc1ccc(C(F)(F)C(F)(F)F)cc1C [compound 983] | A (100) | A (100) | A (100)
6 | COCCCNC(=O)c1c(I)cccc1C(=O)Nc1ccc(C(F)(F)C(F)(F)F)cc1C [compound 985] | A (100) | A (100) | A (100)
7 | C=CCNC(=O)c1c(I)cccc1C(=O)Nc1ccc(C(F)(F)C(F)(F)F)cc1C [compound 987] | A (100) | A (100) | A (100)
8 | C#CCNC(=O)c1c(I)cccc1C(=O)Nc1ccc(C(F)(F)C(F)(F)F)cc1C [compound 989] | A (100) | A (100) | A (100)
9 | Cc1cc(C(F)(F)C(F)(F)F)ccc1NC(=O)c1cccc(I)c1C(=O)NC1CCCC1 [compound 991] | A (100) | A (100) | A (100)
10 | CC(C)NC(=O)c1c(C(=O)Nc2ccc(SC(F)(F)F)cc2)cccc1[N+](=O)[O-] [compound 996] | A (100) | A (100) | A (100)
11 | CC(C)NC(=O)c1c(Cl)cccc1C(=O)Nc1ccc(SC(F)(F)F)cc1 [compound 997] | A (100) | A (100) | A (100)
12 | CC(C)NC(=O)c1c(I)cccc1C(=O)Nc1ccc(SC(F)(F)F)cc1 [compound 998] | A (100) | A (100) | A (100)
13 | CC(C)NC(=O)c1c(C(=O)Nc2ccc([S+]([O-])C(F)(F)F)cc2)cccc1[N+](=O)[O-] (stereo not drawn) [compound 1000] | A (100) | A (100) | D (79-50)
14 | CC(C)NC(=O)c1c(Cl)cccc1C(=O)Nc1ccc([S+]([O-])C(F)(F)F)cc1 (stereo not drawn) [compound 1001] | A (100) | A (100) | A (100)
15 | CC(C)NC(=O)c1c(I)cccc1C(=O)Nc1ccc([S+]([O-])C(F)(F)F)cc1 (stereo not drawn) [compound 1002] | A (100) | A (100) | A (100)
16 | CC(C)NC(=O)c1c(I)cccc1C(=O)Nc1ccc2c(c1)OC(F)(F)C(F)(F)O2 [compound 1003] | A (100) | A (100) | A (100)
17 | CC(C)NC(=O)c1c(I)cccc1C(=O)Nc1ccc(C(O)(C(F)(F)F)C(F)(F)F)cc1 [compound 1004] | A (100) | A (100) | A (100)
18 | Cc1cc(C(F)(F)C(F)(F)F)ccc1NC(=O)c1cccc(I)c1C(=O)NCC(C)C [compound 1005] | A (100) | A (100) | A (100)
19 | CCC(C)NC(=O)c1c(I)cccc1C(=O)Nc1ccc(C(F)(F)C(F)(F)F)cc1C (stereo not drawn) [compound 1007] | A (100) | A (100) | A (100)
20 | CCCC(C)NC(=O)c1c(I)cccc1C(=O)Nc1ccc(C(F)(F)C(F)(F)F)cc1C (stereo not drawn) [compound 1009] | A (100) | A (100) | A (100)
